Results: patent US8653046B2, “Controlling transgene expression across the skin” (ETH Zurich, priority 2009, dated 2014)

Columns and labels:
TtgA1 (TtgR-VP16) [1] = molecular target: T1, TtgA1 (TtgR-VP16) (Pseudomonas putida, UniProt Q9AIU0); assay: Compatibility test: phloretin-responsive SEAP production of CHO-PEACE8; type: cell-based, Pseudomonas putida DOT-T1E; parameters: expressed in transfected cells; host or cells: CHO-K1 (transient pMG11 or pMG13); also HEK-293, BHK-21, COS-7, HaCaT, HT-1080, NIH/3T3, primary human fibroblasts and keratinocytes; conditions: Phl 50 μM, 48 h, 100 = no inducer
T1 sequence (Q9AIU0 whole entry, added parts left off): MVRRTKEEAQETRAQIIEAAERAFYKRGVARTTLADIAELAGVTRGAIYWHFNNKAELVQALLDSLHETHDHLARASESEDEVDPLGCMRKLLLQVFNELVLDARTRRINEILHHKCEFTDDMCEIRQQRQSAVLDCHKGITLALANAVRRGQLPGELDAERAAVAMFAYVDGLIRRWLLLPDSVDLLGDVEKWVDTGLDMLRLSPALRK
Text: To evaluate the functional compatibility of PEACE with the established tetracycline— [TETOFF; Gossen M., Bujard H., 1992, Proc Natl Acad Sci USA 89(12):5547-5551] and macrolide— [EOFF; Weber W., et al., 2002, Nat Biotechnol 20(9):901-907] responsive expression circuits CHO-PEACE8 is transiently transfected, transgenic for phloretin-responsive SEAP expression, with either the TETOFF-(pSAM200, PSV40-tTA-pA; pBP99, PhCMV*-1-SAMY-pA) or the EOFF-(PWW35, PSV40-ET1-pA; pBP100, PETR3-SAMY-pA) system set to control the Bacillus stearothermophilus-derived secreted α-amylase (SAMY) in response to tetracycline and erythromycin, respectively. SEAP and SAMY expression are scored 48 h after cultivation of the transfected populations in the presence (50 μM; 2 μg/mL) or absence of the inducer molecules (phloretin, tetracycline, erythromycin).
The stable CHO-PEACE8 cell line, transgenic for phloretin-controlled SEAP expression, is constructed in two steps: (i) CHO-K1 cells are co-transfected with pMG11 (PSV40-TtgA1-pA) and pSV2neo (Clontech, Cat. No. 6172-1) at a ratio of 20:1 and clonal selection results in the cell line CHO-TtgA. (ii) CHO-TtgA is co-transfected with pMG10 (PTtgR1-SEAP-pA) and pPur (Clontech, Cat. No. 6156-1) (ratio of 20:1) and the phloretin-responsive SEAP-producing double-transgenic cell line CHO-PEACE8 is chosen after clonal selection. […] Reversibility of phloretin-mediated SEAP production is assessed by cultivating CHO-PEACE8 (100,000 cells/mL) for 144 h while alternating phloretin concentrations from 0 to 50 μM every 48 h.

TtgA1 (TtgR-VP16) [2] = molecular target: T1, TtgA1 (TtgR-VP16); assay: Time-delayed induction of SEAP production of CHO-PEACE8 in bioreactor; type: cell-based; parameters: expressed in transfected cells; host or cells: CHO-K1 (transient pMG11 or pMG13); also HEK-293, BHK-21, COS-7, HaCaT, HT-1080, NIH/3T3, primary human fibroblasts and keratinocytes; conditions: 1 L bioreactor, start doses 60, 80 or 100 μM phloretin
Protocol: 2×10^3 cells/mL CHO-PEACE8 are cultivated in a bioreactor containing 1 L culture medium supplemented with either 60, 80 or 100 μM phloretin and SEAP production is profiled for 211 h. Owing to a defined phloretin degradation profile in culture and a precise induction threshold of 40 μM phloretin, the onset of SEAP production can be programmed to occur at a very precise point in time by defining the cell density and the phloretin concentration at production start.
Since phloretin is a non-toxic fruit component, it is an ideal product gene inducer for biopharmaceutical manufacturing scenarios, which require precise timing or dosing of difficult-to-express protein pharmaceuticals. Also, since phloretin has a determined half-live of 70 h in mammalian cell culture systems any production culture can be programmed to start product gene expression at a predefined point in time as phloretin concentrations drop below a repressing threshold level. A 1 L BioWave® bioreactor is inoculated with 2×10^3 CHO-PEACE8 and different transgene-repressing phloretin doses of 60, 80 or 100 μM. While CHO-PEACE8 grows exponentially from the start of the bioprocess, SEAP production gradually increases once phloretin is degraded to non-repressive levels (40 μM; FIG. 8). […]

## O=C(CCc1ccc(O)cc1)c1c(O)cc(O)cc1O [phloretin, 3-[4-hydroxyphenyl]-1-[2,4,6-trihydroxyphenyl]-1-propanone]
TtgA1 (TtgR-VP16) [1]; CHO-PEACE8 transiently transfected with macrolide-responsive control system, EM 2 μg/mL
  Relative SEAP Production (%): 2.0 ± 1.2%
TtgA1 (TtgR-VP16) [1]; CHO-PEACE8 transiently transfected with tetracycline-responsive control system, Tet 2 μg/mL
  Relative SEAP Production (%): 2.2 ± 0.2%
TtgA1 (TtgR-VP16) [2]
  induction threshold (non-repressive phloretin level) for SEAP production: 40 µM
